In series [1] the test system is Mycobacterium tuberculosis. Put plainly: Antimycobacterial activity against Mycobacterium tuberculosis H37Rv in presence of tryptophan after 14 days by broth microdilution method. To be noted: 336 h. Format: functional.
Series [2] concerns Mycobacterium tuberculosis. Put plainly: Antitubercular activity against Mycobacterium tuberculosis infected in mouse assessed as reduction in bacterial load in infected mouse spleen at 200 mg/kg administered 8 days post infection and measured at 2 week relative to control. The class given is functional.
In series [3] the test system is Mycobacterium tuberculosis. The experiment in a line: Antimycobacterial activity against Mycobacterium tuberculosis in absence of tryptophan by Alamar Blue assay. The class given is functional.
Series [4] can be described thus: Cytotoxicity against human HepG2 cells after 48 hrs by CellTiter Glo assay. The class given is cell-based. (In general: Cellular ATP, detected with luciferase, serves as a proxy for viable cell number.)
Series [5] in a line: Intrinsic clearance in mouse liver microsomes incubated for 30 mins and measured up to 30 mins by LC-MS/MS analysis. The class given is ADME, Microsome. As to conditions: 0.5 h. (Liver microsomes are vesicles of endoplasmic reticulum, rich in cytochrome P450 enzymes.)
Series [6] can be described thus: Intrinsic clearance in mouse liver microsomes at 1 uM in presence of NADPH measured up to 60 mins by LC-MS/MS analysis. As to conditions: read-out: CLH. Format: ADME, Microsome.
The nature of series [7]: Cytotoxicity against human HepG2 cells. Format: cell-based.
The subject of series [8] is Mycobacterium tuberculosis. Put plainly: Antimycobacterial activity against pan-sensitive Mycobacterium tuberculosis HN-878 incubated for 2 weeks. The class given is functional. As to conditions: HN-878, 336 h.
The subject of series [9] is Mycobacterium tuberculosis. The experiment in a line: Antimycobacterial activity against pan-sensitive Mycobacterium tuberculosis CI-4 incubated for 2 weeks. The class given is functional. To be noted: CI-4, 336 h.
The test system of series [10] is Mycobacterium marinum. Put plainly: Antimycobacterial activity against Mycobacterium marinum infected in zebra fish embryos assessed as reduction in bacterial growth at 15 to 30 uM incubated for 5 days relative to control. Format: functional.
Series [11] has as its system Mycobacterium tuberculosis. Put plainly: Antimycobacterial activity against pan-sensitive Mycobacterium tuberculosis AS2 incubated for 2 weeks. The class given is functional. To be noted: AS2, 336 h.
The test system of series [12] is Mycobacterium tuberculosis. Put plainly: Antimycobacterial activity against wild-type Mycobacterium tuberculosis H37Rv infected in mouse J774 cells assessed as reduction in bacterial growth incubated for 3 days relative to control. The class given is functional.
In series [13] the test system is Mycobacterium tuberculosis. The experiment in a line: Antimycobacterial activity against wild-type Mycobacterium tuberculosis H37Rv incubated for 2 weeks. The class given is functional. To be noted: 336 h.
Series [14] concerns Mycobacterium tuberculosis. The experiment in a line: Antimycobacterial activity against pan-sensitive Mycobacterium tuberculosis CI-11 incubated for 2 weeks. The class given is functional. As to conditions: CI-11, 336 h.
For series [15], the system named is Mycobacterium tuberculosis. The experiment in a line: Antimycobacterial activity against pan-sensitive Mycobacterium tuberculosis CI-5 incubated for 2 weeks. Format: functional. To be noted: CI-5, 336 h.
The subject of series [16] is Mycobacterium tuberculosis. Put plainly: Antimycobacterial activity against pan-sensitive Mycobacterium tuberculosis AS4 incubated for 2 weeks. The class given is functional. As to conditions: AS4, 336 h.
The test system of series [17] is Mycobacterium tuberculosis. Put plainly: Antimycobacterial activity against pan-sensitive Mycobacterium tuberculosis CDC1551 incubated for 2 weeks. Format: functional. As to conditions: CDC1551, 336 h.
Series [18] relates to Mycobacterium tuberculosis. Put plainly: Antitubercular activity against Mycobacterium tuberculosis H37Rv. The class given is functional.
Series [19] deals with Mycobacterium tuberculosis H37Rv. Put plainly: Inhibition of Tryptophan synthase alpha in Mycobacterium tuberculosis H37Rv assessed as bactericidal activity incubated for 4 weeks by agar dilution method.
Series [20] in a line: Inhibition of Mycobacterium tuberculosis Anthranilate phosphoribosyltransferase expressed in Escherichia coli BL21(DE3) pRIL cells using PRPP as substrate in presence of PRAI-InGPS by fluorescence-based assay.
For series [21], the system named is Mycobacterium tuberculosis. Put plainly: Antimycobacterial activity against Mycobacterium tuberculosis H37Rv infected in C57BL/6 mouse assessed as reduction in colony forming unit at 350 mg/kg, po administered for 8 consecutive days starting from day 1 post infection relative to control. The class given is functional.
A short description of series [22]: Oral bioavailability in CD-1 mouse at 100 mg/kg measured up to 24 hrs. The class given is ADME, organism-based. To be noted: in vivo.
Series [23] deals with Mycobacterium tuberculosis. Put plainly: Antitubercular activity against Mycobacterium tuberculosis H37Rv ATCC 27294 after 10 days. Format: functional. To be noted: H37Rv ATCC 27294, 240 h.
The nature of series [24]: Cytotoxicity against human HepG2 cells after 24 hrs by CellTiter 96 AQueous One Solution Cell Proliferation assay. The class given is cell-based.
The test system of series [25] is Mycobacterium tuberculosis. Put plainly: Antitubercular activity against Mycobacterium tuberculosis H37Rv infected in BALB/c mouse assessed as reduction in bacterial load in infected mouse spleen at 100 mg/kg, po administered 6 days per week for 4 weeks relative to control. Format: functional.

The structures appear in SMILES notation. ≈ marks a conversion by molar mass, not a printed value.

In general, MIC90 refers to the lowest concentration that inhibits either 90% of growth or 90% of the strains tested, depending on the study. Regarding `Cc1cccc(NC(=O)COC(=O)CCc2c[nH]c3ccccc23)c1`, the MIC90 in series [1] was under 64 µM.
With `Nc1cccc(F)c1C(=O)O`, the “fold change (FC)” value in series [2] stood at 10. In [3], this molecule gave an MIC of 5 µM (≈ 0.776 µg/mL).
As a reminder, the CC50 is the concentration giving 50% cytotoxicity. Low readings indicate greater toxicity to the cells, high ones lower toxicity to the cells. For the molecule `CNS(=O)(=O)c1ccc2c(c1)CCN2C(=O)c1ccccc1F`, the CC50 at 48 h in series [4] is over 100 µM. The CLH in series [5] stood at 39.5 mL/min/g.
Consider `N#C[C@@H]1N[C@@H](CO)[C@H]1c1ccc(-c2ccccc2F)cc1`, for which the microsomal CLint at 1 µM in series [6] came to 336 µL/min/mg. In series [7], this molecule came in with a CC50 of over 100 µM. Also, the MIC90 in series [8] came out at 3 µM (≈ 0.847 µg/mL); in series [9], 1.6 µM (≈ 0.452 µg/mL); in [11] it was 3 µM (≈ 0.847 µg/mL); in series [13], 3 µM (≈ 0.847 µg/mL); in series [14], 1.6 µM (≈ 0.452 µg/mL); in [15], 3 µM (≈ 0.847 µg/mL). The MIC90 in [16] and in series [17] was 3 µM (≈ 0.847 µg/mL) throughout. For the same molecule, in series [10], the “log(activity)” value was determined as 1.5. For the same molecule, the “fold change (FC)” value in series [12] was 8.
In series [4], `O=S1(=O)C[C@H](O)[C@@H](N2CCN(c3ccccc3Cl)CC2)C1` returned a cytotoxic concentration (CC50) at 48 h of over 50 µM. The molecule also showed a CLH in series [5] of 15.7 mL/min/g.
As for `CNS(=O)(=O)c1ccc2c(c1)CCN2C(=O)c1ccc(C)s1`, the CC50 at 48 h in series [4] is over 100 µM. Also, in series [5], the CLH came out at 27.1 mL/min/g.
`O=S1(=O)C[C@H](O)[C@@H](N2CCC(c3ccccc3Cl)CC2)C1`: the half-maximal cytotoxic concentration (CC50) at 48 h in series [4] is over 100 µM. In series [5], this molecule registered a CLH of 73.7 mL/min/g. The molecule also came in with an MIC in series [18] of 0.5 µM (≈ 0.165 µg/mL).
Regarding `NC(=O)c1ccc(CNC(=O)c2cc(-c3cccc(Cl)c3)on2)cc1`, in series [19], the MIC amounted to 6 µg/mL (≈ 16.9 µM).
The molecule `Nc1ccc(F)cc1C(=O)O` registered an MIC in [3] of 5 µM (≈ 0.776 µg/mL).
For orientation: Ki means a dissociation constant, usually derived from enzyme kinetics or from competition with a known ligand. Take `O=C(O)c1ccccc1Nc1ccccc1C(=O)O`: the Ki in series [20] was 1.5 µM.
Take `O=S1(=O)C[C@H](O)[C@@H](N2CCN(c3ccc(F)cc3Cl)CC2)C1`: the CC50 at 48 h in series [4] is over 100 µM. Also, the “log(activity)” value in [21] stood at 1.4. This molecule gave a CLH in series [5] of under 0.5 mL/min/g. Also, in [18], the MIC was 2.25 µM (≈ 0.785 µg/mL).
In general, bioavailability refers to the share of a dose that reaches the circulation, judged against a reference dose that is usually intravenous. Low values mean little systemic uptake, high ones much systemic uptake. One may read the MIC50 as the lowest concentration that inhibits either 50% of growth or 50% of the strains tested, depending on the study. `O=C(O)CCc1c[nH]c2ccccc12` [INDOLYLPROPIONIC ACID]: the bioavailability in [22] was in the range of 30 to 33%. Besides, the MIC50 in series [23] came to 68 µM (≈ 12.9 µg/mL). For the same molecule, the cytotoxic concentration (CC50) at 24 h in [24] was over 1000 µM. Besides, the “fold change (FC)” value in series [25] is reported as 7.

The values above are taken from ChEMBL document CHEMBL4402538, “Mycobacterial tryptophan biosynthesis: A promising target for tuberculosis drug development?” (Bioorg Med Chem Lett, 2019).
